Assay results from paper PMC9343080, “Distribution- and Metabolism-Based Drug Discovery: A Potassium-Competitive Acid Blocker as a Proof of Concept” (Research, 2022).
Structures can show the parent of a compound that is named as a salt. Where two headings read alike, the source gives them in different places. Each block holds one compound with its values, some of them ahead of it.

Tests used:
[1] = set-up: method as in PMID 27414183; settings: human hepatocytes; ref [42]; cited from earlier work
[2] = biological target: T1, rabbit gastric H+, K+-ATPase (Oryctolagus cuniculus, UniProt P27112); test: In vitro enzymatic activity assay (inorganic phosphate from ATP hydrolysis); format: biochemical
T1 construct: using rabbit gastric H^+, K^+-ATPase; from tissue; host or cells: rabbit stomach (gastric preparation; the method of preparation is not described)
T1 sequence (P27112 whole entry): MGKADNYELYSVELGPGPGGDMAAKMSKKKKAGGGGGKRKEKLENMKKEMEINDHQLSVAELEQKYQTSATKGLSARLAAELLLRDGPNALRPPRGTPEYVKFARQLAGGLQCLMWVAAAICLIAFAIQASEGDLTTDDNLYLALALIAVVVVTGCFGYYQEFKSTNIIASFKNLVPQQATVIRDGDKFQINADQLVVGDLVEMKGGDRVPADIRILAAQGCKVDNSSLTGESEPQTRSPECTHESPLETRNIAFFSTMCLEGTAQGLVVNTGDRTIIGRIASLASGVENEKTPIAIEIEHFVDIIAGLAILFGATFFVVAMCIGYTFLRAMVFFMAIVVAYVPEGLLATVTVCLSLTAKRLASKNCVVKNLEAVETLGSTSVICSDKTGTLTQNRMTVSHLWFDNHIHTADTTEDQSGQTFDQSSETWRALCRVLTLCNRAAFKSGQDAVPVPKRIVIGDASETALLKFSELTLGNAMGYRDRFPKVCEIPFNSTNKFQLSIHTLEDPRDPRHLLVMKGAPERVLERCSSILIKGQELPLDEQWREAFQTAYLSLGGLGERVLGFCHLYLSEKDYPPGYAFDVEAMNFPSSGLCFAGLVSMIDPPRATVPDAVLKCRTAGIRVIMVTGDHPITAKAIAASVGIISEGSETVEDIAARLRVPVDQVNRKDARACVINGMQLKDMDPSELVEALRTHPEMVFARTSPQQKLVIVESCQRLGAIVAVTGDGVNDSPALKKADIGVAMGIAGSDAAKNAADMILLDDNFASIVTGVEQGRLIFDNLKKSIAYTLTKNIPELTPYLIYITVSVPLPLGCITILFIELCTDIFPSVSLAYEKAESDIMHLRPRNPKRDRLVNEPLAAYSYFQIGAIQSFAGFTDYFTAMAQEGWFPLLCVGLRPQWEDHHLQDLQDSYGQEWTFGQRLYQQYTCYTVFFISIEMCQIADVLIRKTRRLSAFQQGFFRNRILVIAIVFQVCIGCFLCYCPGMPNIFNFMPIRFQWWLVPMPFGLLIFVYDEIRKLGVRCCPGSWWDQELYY
T1 sequence (P18597 whole entry partner): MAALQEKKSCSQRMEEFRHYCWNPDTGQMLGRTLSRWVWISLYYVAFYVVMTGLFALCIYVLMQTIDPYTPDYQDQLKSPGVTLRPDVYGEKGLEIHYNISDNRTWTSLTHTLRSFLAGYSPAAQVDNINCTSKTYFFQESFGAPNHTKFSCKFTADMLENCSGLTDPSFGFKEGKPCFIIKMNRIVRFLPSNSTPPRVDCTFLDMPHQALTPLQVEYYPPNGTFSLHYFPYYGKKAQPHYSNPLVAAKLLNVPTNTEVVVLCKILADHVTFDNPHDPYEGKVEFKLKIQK
Experimental: The in vitro enzymatic activity was calculated by measuring the inorganic phosphate produced by the hydrolysis of ATP using rabbit gastric H^+, K^+-ATPase. 0.25 μg enzyme was preincubated at 37°C for 30 min in Tris-HCl buffer (2.0 mL, 50 mM, pH 6.5) containing 5 mM MgCl2, 10 μM valinomycin, 0 or 20 mM KCl, and different concentrations of SH-337 and vonoprazan. The reaction was initiated by adding 5 μL of 5 mM ATP 2Na, and the preparation was incubated for 30 min at 37°C and halted by the addition of 100 μL of malachite green reagent (0.12% malachite green, 7.5% ammonium molybdate, and 11% tween 20 were mixed in a volume ratio of 100 : 25 : 2). H^+, K^+-ATPase activity was calculated after subtracting the enzyme activity in the absence of KCl.

[3] = Tissue distribution of SH-337 in rats (LC-MS/MS); format: in vivo, rat
Experimental: 15 SPF male SD rats were randomly divided into 5 groups, three per group. Fasting was for 4 hours. Plasma, heart, liver, and stomach were obtained 0.25, 1, 2, 4, and 24 hours after oral administration of SH-337 (0.4 mg/mL in water) at a dose of 4 mg/kg. At designated time points, rats were anesthetized with ether, and the blood samples were collected via the abdominal aorta. The blood was immediately cooled under ice-chilled conditions and centrifuged at approximately 1500 × g at 4°C for 10 minutes to obtain the plasma. For plasma: 20 μL Std samples in duplicate, QC samples in duplicate, and rat plasma samples were mixed with 60 μL ACN containing IS (200 ng/mL of tolbutamide, 50 ng/mL of propranolol, and 500 ng/mL of Dic) in EP tubes. After the mixture was vortexed for 1 min and then centrifuged for 10 min (13000 rpm, 4°C), transfer 50 μL supernatant to a 96-well plate with 150 μL pure water, shake for 10 min, and finally analyze by LC-MS/MS. For heart and liver: tissue samples were added with 3-folds (w/v) saline in terms of the weight of samples and then homogenated. 20 μL Std samples in duplicate, QC samples in duplicate, and rat heart and liver samples were mixed with 60 μL ACN containing IS (200 ng/mL of tolbutamide, 50 ng/mL of propranolol, and 500 ng/mL of Dic) in EP tubes. After the mixture was vortexed for 1 min and then centrifuged for 10 min (13000 rpm, 4°C), transfer 50 μL supernatant to a 96-well plate with 150 μL pure water, shake for 10 min, and finally analyze by LC-MS/MS. For stomach: tissue samples were added with 3-folds (w/v) saline in terms of the weight of samples and then homogenated. 20 μL Std samples in duplicate, QC samples in duplicate, and rat stomach samples were mixed with 60 μL ACN containing IS (200 ng/mL of tolbutamide, 50 ng/mL of propranolol, and 500 ng/mL of Dic) in EP tubes. After the mixture was vortexed for 1 min and then centrifuged for 10 min (13000 rpm, 4°C), transfer 50 μL supernatant to a 96-well plate with 150 μL pure water, shake for 10 min, and finally analyze by LC-MS/MS.

[4] = Metabolite identification and profiling in rat liver microsomes; format: in vitro ADME
Experimental: (§1) Liver microsomes (1 mg protein/mL) were suspended in phosphate buffer (50 mM, pH 7.4) containing MgCl2 (6 mM). […] The reactions were initiated at 37°C by the addition of 1 mM NADPH and terminated at 30 min or 60 min (30 min for rat; 60 min for human). The samples were precipitated with acetonitrile at 1 : 2 and further centrifuged; the supernatants were dried with a stream of N2 gas. The residues were reconstituted with 300 μL of 10% acetonitrile/H2O (0.1% TFA) and analyzed by LC-MS/MS. The assays were pursued under the conditions provided in Supplementary Tables S4, S6, S7, and S8.

[5] = Metabolite identification and profiling in human liver microsomes; format: in vitro ADME
Experimental: as §1

[6] = Metabolite identification and profiling in rat hepatocytes; format: in vitro ADME; settings: for Relative peak area, RHeps: SH-337, rat hepatocytes, 60 min incubation
Experimental: (§2) SH-337 was incubated with rat or human hepatocytes at a concentration of 1.0 × 10^6 cells/mL for 60 min or 120 min (rat 60 min, human 120 min) at 37°C in a CO2 incubator. The samples were precipitated with acetonitrile at 1 : 2 and further centrifuged; the supernatants were dried with a stream of N2 gas. The residues were reconstituted with 300 μL of 10% acetonitrile/H2O (0.1% TFA) and analyzed by LC-MS/MS. The assays were pursued under the conditions provided in Supplementary Tables S5–S8.

[7] = Metabolite identification and profiling in human hepatocytes; format: in vitro ADME
Experimental: as §2

[8] = Metabolite profiling, range over rat and human liver microsomes; format: in vitro ADME; settings: rat and human microsomes after 30 and 60 min incubation
Experimental: as §1

[9] = Metabolite profiling, range over rat and human hepatocytes; format: in vitro ADME; settings: rat and human hepatocytes after 60 and 120 min incubation
Experimental: as §2

[10] = cited from earlier work
[11] = log D7.4 measurement (1-octanol/PBS pH 7.4); format: physicochemical; settings: 1-octanol/PBS, pH 7.4, pH 7.4
Experimental: (§3) Procedure for pKa and log D7.4 measurements. The pKa was determined using pH-metric Method from DMSO Stock Solution. Procedure for Log D determinations: 15 µL of stock solutions of test compounds and control compound was placed in order into their proper 96-well rack. 500 µL of PBS saturated 1-octanol was added into each vial of the cap-less Log D plate followed by the addition of 500 µL of 1-octanol saturated PBS (pH 7.4). One stir stick was added to each vial and a molded PTFE/Silicone plug was used to seal each vial. Then the Log D plate was transferred to the Eppendorf Thermomixer Comfort plate shaker and shaken at 25°C at 1,100 RPM for 1 hour. After completion of 1 hour, plugs were removed and the stir sticks were removed using a big magnet. The samples were then centrifuged at 25°C at 20,000 g for 20 minutes to separate the phases, and pipette and syringe were used to remove the upper (1-octanol) and lower (buffer) phases to the empty tubes, respectively. Aliquots of 5 µL were taken from upper phases followed by addition of 495 µL of a mixture of H2O and acetonitrile (1:1 in v/v). Vortex for 1 minute, and then aliquots of 50 µL were taken from the diluent followed by addition of 450 µL of a mixture of H2O and acetonitrile (1:1 in v/v). And aliquots of 50 µL were taken from lower phases followed by addition of 450 µL of a mixture of H2O and acetonitrile (1:1 in v/v). 200 μL of diluent was transferred to a new 96-well plate for LC-MS/MS analysis. The dilution factor was changed according to the Log D value and the LC-MS signal response. The concentrations of test compound and control compound in 1-octanol/buffer solution were evaluated by LC-MS/MS. The Log D values of the test compounds and control compound were calculated as follows: […]

[12] = pKa measurement (pH-metric method); format: physicochemical; settings: read-out: pKa
Experimental: as §3

[13] = rats, i.g. 2 mg/kg vonoprazan, ref [43]

SMILES: C/[N+]([O-])=C/c1cc(-c2ccccc2F)n(S(=O)(=O)c2cccnc2)c1 [M-III]
- share in the in vitro metabolic profile of vonoprazan [1]: 4.1%

SMILES: O=C(O)c1c[nH]c(-c2ccccc2F)c1 [M-II]
- share in the in vitro metabolic profile of vonoprazan [1]: 0.5%

SMILES: CNCc1cc(-c2ccc(O)cc2F)n(S(=O)(=O)c2cccnc2)c1.Cl.Cl [M-IV, 3-fluoro-4-(4-((methylamino)methyl)-1-(pyridin-3-ylsulfonyl)-1H-pyrrol-2-yl)phenol dihydrochloride]
- IC50 [2]: 112 nM
- AUC0–24 in the liver ([3]; after oral dosing of 4.0 mg/kg SH-337): 3410 ng·h/g
- AUC(0-t) ([3]; male, SD, rat, plasma, po, rats, i.g. 4 mg/kg SH-337, read-out: AUC0–24, Plasma): 20.3 ng·h/mL
- AUC0–24, Liver ([3]; rats, i.g. 4 mg/kg SH-337): 3411.2 ng equiv. h/mL or g
- AUC0–24, Stomach ([3]; rats, i.g. 4 mg/kg SH-337): 94.1 ng equiv. h/mL or g
- Percentage of all the metabolites except SH-337, RLMs ([4]; 30 min): 90.2%
- Relative peak area, RLMs ([4]; SH-337 10 µM, 30 min incubation): 49%
- Percentage of all the metabolites except SH-337, HLMs ([5]; 60 min): 89.4%
- Relative peak area, HLMs ([5]; SH-337 10 µM, 60 min incubation): 27.8%
- Relative peak area, RHeps [6]: 40.3%
- Percentage of all the metabolites except SH-337, RHeps ([6]; rat hepatocytes, 60 min): 56.1%
- Relative peak area, Hheps ([7]; SH-337, human hepatocytes, 120 min incubation): 11.6%
- Percentage of all the metabolites except SH-337, Hheps ([7]; human hepatocytes, 120 min): 49.4%
- Percentage of all SH-337 metabolites in microsomes [8]: 89.4-90.2%
- Percentage of all SH-337 metabolites in hepatocytes [9]: 49.4–56.1%

SMILES: CN(Cc1cc(-c2ccc(O)cc2F)n(S(=O)(=O)c2cccnc2)c1)S(=O)(=O)O [M-IV-Sul]
- share in the in vitro metabolic profile of vonoprazan [1]: 28%

SMILES: O=C(O)c1cc(-c2ccccc2F)n(S(=O)(=O)c2cccnc2)c1 [M-I]
- AUC0–24 in the liver ([10]; after oral dosing of 2.0 mg/kg vonoprazan, ref [43]): 18400 ng·h/g
- fold higher levels compared with those of vonoprazan ([10]; plasma, liver and kidney, rat model, ref [44]): 4.3- to 58 fold
- AUC0–24, Liver [10, 13]: 18404.0 ng equiv. h/mL or g
- AUC0–24, Plasma [10, 13]: 4392.0 ng equiv. h/mL or g
- AUC0–24, Stomach [10, 13]: 918.0 ng equiv. h/mL or g
- share in the in vitro metabolic profile of vonoprazan [1]: 18%

SMILES: NCc1cc(-c2ccccc2F)n(S(=O)(=O)c2cccnc2)c1 [N-demethylated vonoprazan]
- share in the in vitro metabolic profile of vonoprazan [1]: 30%

- IC50 [2]: 57.8 nM
- logD at 1 h [11]: 0.5
- pKa [12]: 9.26
SMILES: CNCc1cc(-c2ccc(OCc3cnn(C)c3)cc2F)n(S(=O)(=O)c2cccnc2)c1 [S1, 1-(5-(2-fluoro-4-((1-methyl-1H-pyrazol-4-yl)methoxy)phenyl)-1-(pyridin-3-ylsulfonyl)-1H-pyrrol-3-yl)-N-methylmethanamine fumarate]

- IC50 [2]: 129 nM
- logD at 1 h [11]: 0.91
- pKa [12]: 9.13
SMILES: CNCc1cc(-c2ccc(OCC3COC3)cc2F)n(S(=O)(=O)c2cccnc2)c1 [S2, 1-(5-(2-fluoro-4-(oxetan-3-ylmethoxy)phenyl)-1-(pyridin-3-ylsulfonyl)-1H-pyrrol-3-yl)-N-methylmethanamine dihydrochloride]

SMILES: CN(Cc1cc(-c2ccc(OCC3CC3)cc2F)n(S(=O)(=O)c2cccnc2)c1)S(=O)(=O)O [Sulfated SH-337]
- Relative peak area, RHeps [6]: 0.1%
- Percentage of all SH-337 metabolites in microsomes [8]: 0%
- Percentage of all SH-337 metabolites in hepatocytes [9]: 0.13%
